Source: patent US20130045952A1, “ABA Receptor Agonists for Increased Plant Stress Resistance” (Van Andel Research Institute, priority 2011, published 2013)

Columns and labels:
Format in all cases: biochemical
[1] = target: T1, His6-PYR1 / biotin-PP2C (Arabidopsis thaliana, UniProt O49686); assay: AlphaScreen luminescence proximity assay, PYR1-PP2C interaction; conditions: 100 nM His6-PYR1, 100 nM biotin-PP2C, 100 μM agonist; normalized against a pyrabactin control
T1 construct: made in house; host or cells: E. coli is stated for PYL1, PYL2 and the PP2Cs, not expressly for PYR1
T1 sequence (O49686 1-191): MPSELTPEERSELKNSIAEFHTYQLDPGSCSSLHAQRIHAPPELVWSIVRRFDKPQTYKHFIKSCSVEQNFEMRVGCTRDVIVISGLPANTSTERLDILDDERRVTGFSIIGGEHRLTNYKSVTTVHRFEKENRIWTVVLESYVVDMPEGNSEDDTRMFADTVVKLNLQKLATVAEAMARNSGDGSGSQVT
Method: (§1) Mutant proteins were expressed as H6GST-fusion proteins and purified by glutathione sepharose chromatography. Protein-protein interactions were determined by luminescence proximity AlphaScreen assay. Biotinylated PP2C proteins for the luminescence proximity assay were generated by in vivo biotinylation of avitag-PP2C fusion proteins. PP2C phosphatase activity was measured by phosphate release from a SnRK2.6 phosphoprotein.
(§2) Interactions between PYR/PYL and PP2Cs were assessed by luminescence-proximity AlphaScreen technology (Perkin Elmer). Briefly, biotinylated PP2Cs were attached to streptavidin-coated donor beads, and H6-tagged PYR/PYL receptors were attached to nickel-chelated acceptor beads. The donor and acceptor beads were brought into proximity by the interactions between PYR/PYLs and PP2Cs, which were measured with and without ligands. When excited by a laser beam of 680 nm, the donor beam emits singlet oxygen that activates thioxene derivatives in the acceptor beads, which releases photons of 520-620 nm as the binding signal. The experiments were conducted with 100 nM of PP2Cs and PYR/PYL proteins in the presence of 5 ug/ml donor and acceptor beads in a buffer of 50 mM MOPS, pH7.4, 50 mM NaF, […], and 0.1 mg/ml bovine serum albumin. The results were based on an average of three experiments with standard errors typically less than 10% of the measurements.
(§3) Values were determined in different experiments and normalized against a pyrabactin control. Blank spaces mean no experimental data is available. Key (photon counts (binding signal units) in Alphascreen luminescence proximity assay): “+++ is >75,000; ++ is 25,000−75,000; + is <25,000.

[2] = target: T2, His6-PYL2 / biotin-PP2C (Arabidopsis thaliana, UniProt O80992); assay: AlphaScreen luminescence proximity assay, PYL2-PP2C interaction; conditions: 100 nM His6-PYL2, 100 nM biotin-PP2C, 100 μM agonist; normalized against a pyrabactin control
T2 construct: PYL2 (residues 14-188), and HAB1 (residues 172-511) were prepared as recombinant proteins in E. coli; made in house; host or cells: E. coli
T2 sequence (O80992 14-188): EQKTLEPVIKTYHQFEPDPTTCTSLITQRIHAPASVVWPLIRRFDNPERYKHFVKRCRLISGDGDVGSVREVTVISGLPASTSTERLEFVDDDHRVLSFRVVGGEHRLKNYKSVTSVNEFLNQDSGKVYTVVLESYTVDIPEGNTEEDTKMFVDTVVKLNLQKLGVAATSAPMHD
Method: as §1, §2, §3

[3] = target: T3, His6-PYL3 / biotin-PP2C (Arabidopsis thaliana, UniProt Q9SSM7); assay: AlphaScreen luminescence proximity assay, PYL3-PP2C interaction; conditions: 100 nM His6-PYL3, 100 nM biotin-PP2C, 100 μM agonist; normalized against a pyrabactin control
T3 construct: made in house; host or cells: not expressly stated for PYL3
T3 sequence (Q9SSM7 1-209): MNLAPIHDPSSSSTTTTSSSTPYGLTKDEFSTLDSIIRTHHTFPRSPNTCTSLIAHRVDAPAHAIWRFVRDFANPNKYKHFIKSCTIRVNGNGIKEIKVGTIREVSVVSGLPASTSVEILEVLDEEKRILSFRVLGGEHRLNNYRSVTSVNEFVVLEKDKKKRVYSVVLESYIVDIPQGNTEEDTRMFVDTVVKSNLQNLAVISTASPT
Method: as §1, §2, §3

[4] = target: T4, His6-PYL1 / biotin-PP2C (Arabidopsis thaliana, UniProt Q8VZS8); assay: AlphaScreen luminescence proximity assay, PYL1-PP2C interaction; conditions: 100 nM His6-PYL1, 100 nM biotin-PP2C, 100 μM agonist; normalized against a pyrabactin control
T4 construct: PYL1 (residues 36-211), PYL2 (residues 14-188), and HAB1 (residues 172-511) were prepared as recombinant proteins in E. coli; made in house; host or cells: E. coli
T4 sequence (Q8VZS8 36-211): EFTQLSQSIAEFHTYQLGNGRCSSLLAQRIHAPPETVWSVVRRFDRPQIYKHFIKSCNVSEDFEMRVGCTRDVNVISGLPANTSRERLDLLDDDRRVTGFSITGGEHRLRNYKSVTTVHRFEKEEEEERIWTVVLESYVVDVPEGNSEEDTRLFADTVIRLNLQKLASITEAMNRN
Method: as §1, §2, §3

[5] = target: T5, His6-PYR1 / biotin-HAB1 (Arabidopsis thaliana, UniProt O49686); assay: AlphaScreen dose response, PYR1-HAB1 interaction; conditions: 100 nM His6-PYR1, 100 nM biotin-PP2C, 0-100 μM agonist; from dose response curves
T5 construct: made in house; host or cells: E. coli (stated for the PP2Cs; not expressly for PYR1)
T5 sequence (O49686 1-191): T1 sequence (O49686 1-191)
T5 sequence (Q9CAJ0 172-511 partner limits assumed): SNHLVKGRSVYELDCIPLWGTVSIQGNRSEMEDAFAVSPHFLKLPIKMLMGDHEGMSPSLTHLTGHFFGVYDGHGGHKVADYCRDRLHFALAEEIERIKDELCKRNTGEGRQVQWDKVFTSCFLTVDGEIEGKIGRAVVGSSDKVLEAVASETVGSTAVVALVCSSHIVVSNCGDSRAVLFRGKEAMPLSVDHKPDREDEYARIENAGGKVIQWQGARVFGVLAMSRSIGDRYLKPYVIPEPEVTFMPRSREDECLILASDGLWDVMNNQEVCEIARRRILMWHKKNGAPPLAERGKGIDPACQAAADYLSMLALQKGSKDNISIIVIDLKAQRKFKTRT
Method: as §2
(§4) The results shown in Table 5b were calculated from the dose response curves of the dependence of the interaction between 100 nM His6-PYR1 and 100 nM biotin-PP2C on the presence of 0-100 μM agonists determined by AlphaScreen luminescence proximity assay. Key (EC50 in μM): ++++=<5.0 μM; +++=5-10 μM; ++=10-20 μM; and +=>20-60 μM.

[6] = target: T6, ABI1 (Arabidopsis thaliana, UniProt O49686+P49597); assay: PP2C phosphatase activity assay, ABI1; conditions: 200 nM PP2C; SnRK2.6 phosphopeptide substrate; None = 100
T6 construct: ABI1 (residues 117-434) and ABI2 (residues 101-423) were expressed as H6Sumo fusion proteins; H6Sumo (N); made in house; host or cells: E. coli BL21
T6 sequence (P49597 117-434 limits assumed): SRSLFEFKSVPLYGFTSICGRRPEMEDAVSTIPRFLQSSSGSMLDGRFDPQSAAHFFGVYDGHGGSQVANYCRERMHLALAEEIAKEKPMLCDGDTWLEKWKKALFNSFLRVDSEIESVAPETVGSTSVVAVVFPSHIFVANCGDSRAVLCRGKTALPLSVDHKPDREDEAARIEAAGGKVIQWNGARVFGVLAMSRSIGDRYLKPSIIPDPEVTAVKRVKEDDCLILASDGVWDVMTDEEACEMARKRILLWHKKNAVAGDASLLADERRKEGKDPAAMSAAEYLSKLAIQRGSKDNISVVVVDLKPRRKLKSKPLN
T6 sequence (O49686 1-191): T1 sequence (O49686 1-191)
Method: as §1
(§5) PP2Cs and PYR/PYL proteins were pre-incubated at the indicated concentrations in 50 mM imidazole, pH 7.2, 5 mM MgCl2, 0.1% β-mercaptoethanol and 0.5 mg/ml BSA for 30 min at room temperature. Reactions were started by addition of 100 μM of a phosphopeptide corresponding to amino acids 170-180 of SnRK2.6 (HSQPK^pSTVGTP). This peptide is phosphorylated at a single residue corresponding to Ser175 in SnRK2.6, whose phosphorylation is required for SnRK2.6 kinase activity^32. Phosphate release from ^pS175 from the phosphopeptide was determined by colorimetric assay (BioVision).

[7] = target: T7, ABI2 (Arabidopsis thaliana, UniProt O04719+O49686); assay: PP2C phosphatase activity assay, ABI2; conditions: 200 nM PP2C; SnRK2.6 phosphopeptide substrate; None = 100
T7 construct: ABI1 (residues 117-434) and ABI2 (residues 101-423) were expressed as H6Sumo fusion proteins; H6Sumo (N); made in house; host or cells: E. coli BL21
T7 sequence (O04719 101-423 limits assumed): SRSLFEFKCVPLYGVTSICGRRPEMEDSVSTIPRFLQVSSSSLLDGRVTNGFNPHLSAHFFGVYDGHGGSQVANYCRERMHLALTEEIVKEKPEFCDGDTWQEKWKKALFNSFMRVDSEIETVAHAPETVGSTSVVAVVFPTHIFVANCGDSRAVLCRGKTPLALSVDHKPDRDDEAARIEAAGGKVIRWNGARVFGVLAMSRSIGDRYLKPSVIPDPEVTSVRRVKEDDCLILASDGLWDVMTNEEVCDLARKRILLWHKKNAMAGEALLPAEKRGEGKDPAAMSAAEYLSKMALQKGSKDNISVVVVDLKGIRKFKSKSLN
T7 sequence (O49686 1-191): T1 sequence (O49686 1-191)
Method: as §1, §5

[8] = target: T8, His6-PYR1 / biotin-ABI2 (Arabidopsis thaliana, UniProt O49686); assay: AlphaScreen dose response, PYR1-ABI2 interaction; conditions: 100 nM His6-PYR1, 100 nM biotin-PP2C, 0-100 μM agonist; from dose response curves
T8 construct: made in house; host or cells: E. coli (stated for the PP2Cs; not expressly for PYR1)
T8 sequence (O49686 1-191): T1 sequence (O49686 1-191)
T8 sequence (O04719 101-423 partner limits assumed): T7 sequence (O04719 101-423 limits assumed)
Method: as §2, §4

[9] = target: T9, His6-PYR1 / biotin-ABI1 (Arabidopsis thaliana, UniProt O49686); assay: AlphaScreen dose response, PYR1-ABI1 interaction; conditions: 100 nM His6-PYR1, 100 nM biotin-PP2C, 0-100 μM agonist; from dose response curves
T9 construct: made in house; host or cells: E. coli (stated for the PP2Cs; not expressly for PYR1)
T9 sequence (O49686 1-191): T1 sequence (O49686 1-191)
T9 sequence (P49597 117-434 partner limits assumed): T6 sequence (P49597 117-434 limits assumed)
Method: as §2, §4

[10] = target: T10, HAB1 (Arabidopsis thaliana, UniProt O49686+Q9CAJ0); assay: PP2C phosphatase activity assay, HAB1; conditions: 200 nM PP2C; SnRK2.6 phosphopeptide substrate; None = 100
T10 construct: HAB1 (residues 172-511) were prepared as recombinant proteins in E. coli; H6GST or H6Sumo; made in house; host or cells: E. coli
T10 sequence (Q9CAJ0 172-511 limits assumed): T5 sequence (Q9CAJ0 172-511 partner limits assumed)
T10 sequence (O49686 1-191): T1 sequence (O49686 1-191)
Method: as §1, §5

Row | Stimulation of the interaction between PYR1 and PP2C (binding signal) [1] | Stimulation of the interaction between PYL2 and PP2C (binding signal) [2] | Stimulation of the interaction between PYL3 and PP2C (binding signal) [3] | Stimulation of the interaction between PYL1 and PP2C (binding signal) [4] | EC50 [5] | % Phosphatase Activity ABI1 [6] | % Phosphatase Activity ABI2 [7] | EC50 [8] | EC50 [9] | % Phosphatase Activity HAB1 [10] | SMILES
1 | + (+ is <25,000) | + (+ is <25,000) | + (+ is <25,000) |  |  |  |  |  |  |  | CCCCOc1cccc(C(=O)NC(=S)Nc2ccc(S(N)(=O)=O)cc2)c1 [Compound 9]
2 | + (+ is <25,000) | ++ (++ is 25,000−75,000) | ++ (++ is 25,000−75,000) | + (+ is <25,000) |  |  |  |  |  |  | CC(=O)c1cccc(N/C=C/C(=O)c2ccc(Cl)c(Cl)c2)c1 [Compound 15]
3 | + (+ is <25,000) | + (+ is <25,000) | + (+ is <25,000) |  |  |  |  |  |  |  | Cc1ccc(C(=O)O)cc1NC(=S)NC(=O)c1ccccc1Cl [Compound 14]
4 | + (+ is <25,000) |  |  |  |  |  |  |  |  |  | CCCN(CCC)C(=O)[C@@H](CCC(=O)O)NS(=O)(=O)c1ccc(C)cc1 [Compound 13]
5 | +++ (+++ is >75,000) |  | + (+ is <25,000) |  |  |  |  |  |  |  | O=S(=O)(NCc1ccccn1)c1ccc2ccccc2c1 [Compound 4]
6 | ++ (++ is 25,000−75,000) | + (+ is <25,000) | +++ (+++ is >75,000) |  | < 5 µM | 7.7 ± 4.3% | 7.0 ± 0.3% | < 5 µM | < 5 µM | 17.5 ± 0.6% | CSCCCC(NS(=O)(=O)c1ccc(Br)c2ccccc12)C(=O)O (stereo not shown) [Compound 3]
